Data published in PubChem BioAssay (NCI).
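Assay format: 96-well plates, 48-hour exposure. The concentration for 50% growth inhibition is given as GI50. TGI: concentration producing complete growth inhibition.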

Tests used:
Experiment in all cases: DTP human tumour cell line panel, 48 h
[1] = test system: NCI-H522 lung
[2] = test system: HS 578T breast
[3] = test system: SN12C renal
[4] = test system: NCI-H226 lung
[5] = test system: A498 renal
[6] = test system: HL-60(TB) leukemia
[7] = test system: COLO 205 colon
[8] = test system: SK-OV-3 ovarian
[9] = test system: OVCAR-8 ovarian
[10] = test system: UACC-62 melanoma
[11] = test system: SF-539 CNS
[12] = test system: ACHN renal
[13] = test system: HCT-15 colon
[14] = test system: UACC-257 melanoma
[15] = test system: HOP-92 NSCLC
[16] = test system: OVCAR-3 ovarian
[17] = test system: DU-145 prostate
[18] = test system: HT29 colon
[19] = test system: HCT-116 colon
[20] = test system: SW-620 colon
[21] = test system: PC-3 prostate
[22] = test system: CAKI-1 renal
[23] = test system: NCI/ADR-RES ovarian
[24] = test system: EKVX NSCLC
[25] = test system: OVCAR-4 ovarian
[26] = test system: MDA-MB-435
[27] = test system: HCC-2998 colon
[28] = test system: HOP-62 NSCLC
[29] = test system: LOX IMVI melanoma
[30] = test system: TK-10 renal
[31] = test system: MCF7 breast
[32] = test system: OVCAR-5 ovarian
[33] = test system: IGROV1 ovarian
[34] = test system: NCI-H460 lung
[35] = test system: SK-MEL-28 melanoma
[36] = test system: SNB-75 CNS
[37] = test system: SF-295 CNS
[38] = test system: U251 CNS
[39] = test system: SK-MEL-5 melanoma
[40] = test system: UO-31 renal
[41] = test system: A549 NSCLC
[42] = test system: NCI-H23 lung
[43] = test system: BT-549 breast
[44] = test system: 786-0 renal
[45] = test system: SK-MEL-2 melanoma
[46] = test system: MDA-N
[47] = test system: RXF 393 renal
[48] = test system: RPMI-8226 leukemia
[49] = test system: CCRF-CEM leukemia
[50] = test system: K-562 leukemia
[51] = test system: SR leukemia
[52] = test system: KM12 colon
[53] = test system: SF-268 CNS
[54] = test system: M14 melanoma
[55] = test system: SNB-19 CNS
[56] = test system: T-47D breast
[57] = test system: MOLT-4 leukemia
[58] = test system: MDA-MB-231 breast

With CC1CC[P+](c2ccccc2)(c2ccccc2)c2c1ccc1ccccc21 (stereo not given) the TGI [1] was 9.87 µM, the TGI [2] was 7.66 µM and the TGI [3] was 37.1 µM. For the same compound, the GI50 [4] was 8.48 µM, the TGI [4] was 62.8 µM and the GI50 [5] was 35.1 µM. For the same compound, the TGI [5] was 88.2 µM, the TGI [6] was 21.4 µM and the GI50 [7] was 2020 nM. For the same compound, the GI50 [8] was 2730 nM, the TGI [8] was 16.4 µM and the TGI [9] was 21.1 µM. The TGI [10] was 20.1 µM, the TGI [11] was 35.8 µM and the TGI [12] was > 81.5 µM. The TGI [13] was > 100 µM, the TGI [14] was 13.9 µM and the TGI [15] was 5.43 µM. The GI50 [16] was 3.09 µM, the TGI [16] was > 58.8 µM and the GI50 [17] was 13.3 µM. For the same compound, the TGI [17] was > 100 µM, the TGI [18] was 13.9 µM and the TGI [19] was > 39.5 µM. The GI50 [20] was 5.95 µM, the TGI [20] was > 100 µM and the TGI [21] was 7.34 µM. The TGI [22] was 32.6 µM, the TGI [23] was > 100 µM and the GI50 [24] was 92 µM. The TGI [24] was > 100 µM, the TGI [25] was > 100 µM and the TGI [26] was 16.4 µM. The TGI [27] was 41.9 µM, the GI50 [28] was 11.5 µM and the TGI [28] was > 57.5 µM. The TGI [29] was 7.61 µM, the GI50 [30] was 11.4 µM and the TGI [30] was > 100 µM. For the same compound, the TGI [31] was > 100 µM, the TGI [32] was > 100 µM and the GI50 [33] was 4.42 µM. For the same compound, the TGI [33] was 21.2 µM, the TGI [34] was 10.1 µM and the GI50 [35] was 13 µM. For the same compound, the TGI [35] was > 73.4 µM, the TGI [36] was 6.05 µM and the TGI [37] was 20.3 µM. For the same compound, the GI50 [38] was 2850 nM, the TGI [38] was > 100 µM and the TGI [39] was 5.16 µM. The TGI [40] was > 68.3 µM, the TGI [41] was > 100 µM and the TGI [42] was 9.78 µM. The TGI [43] was 6.68 µM, the GI50 [44] was 11 µM and the TGI [44] was 43.4 µM. For the same compound, the TGI [45] was 7.13 µM, the GI50 [46] was 2980 nM and the TGI [46] was > 28.3 µM. It also gave a TGI [47] of 43.5 µM, a GI50 [48] of 1630 nM and a TGI [48] of 11.6 µM. It also gave a TGI [49] of 42.1 µM, a TGI [50] of 17.8 µM and a GI50 [51] of 9.65 µM. For the same compound, the TGI [51] was > 100 µM, the TGI [52] was 14.8 µM and the TGI [53] was > 100 µM. For the same compound, the TGI [54] was 41.9 µM, the TGI [55] was 97.4 µM and the TGI [56] was > 71.6 µM. The TGI [57] was 37.6 µM, the GI50 [58] was 8.98 µM and the TGI [58] was > 45 µM.
